The results in this text go back to patent publication US6881751B2, “Medicament containing platinum complex compounds and the use thereof” (Ruprecht Karls Universitat, priority 1998, dated 2005).

Data set [1] concerns Colon carcinoma cells (SW707). Kind of data set: Anti-tumoral effect on a human colon carcinoma in naked mice. The format is in vivo, Nu/Nu mice, strain NMRI. As to conditions: SW707 tumors about 10 mm, FIG. 2. An excerpt:
b) Anti-Tumoral Effect of a Compound According to Example 1 on a Human Colon Carcinoma in Naked Mice Colon carcinoma cells (SW707) were implanted under the skin of 6-week-old Nu/Nu mice, strain NMRI (5×10^6 cells in common salt solution).

The subject of a further data set is HeLa cells. Kind of data set: pH dependence of the effectiveness of cytostatic agents (live cell count, trypan blue). It counts as cell-based, Human. As to conditions: pH 7.4 vs pH 6.8, 24 hours, FIG. 3. The protocol: The number of live cells was determined after vital staining using trypan blue in Neubauer's counting chamber.
Data set [2] concerns Human H10 cells of a parvocellular bronchial carcinoma. Put plainly: Antitumoral effect on human xenotransplants, H10. The format is in vivo, Nu/Nu-Swiss mice. As to conditions: single i.p. injection 10 mg/kg, FIG. 4A.
A further data set has as its system cell lines. Kind of data set: Dependence of the cytotoxicity on the pH value, all cell lines of the table. It counts as cell-based. As to conditions: pH 6.8 vs pH 7.4, cell lines of the table. The protocol:
Cells were plated in Linbro dishes or plates and, after 4 hours, the cells were fed with a medium which included either 2.2 g/l (pH 7.4) or 0.85 g/l (pH 6.8) NaHCO3.

Data set [3] in a line: Body weight of the xenotransplant group suffering from parvocellular pulmonary carcinoma. The format is in vivo, Nu/Nu-Swiss mice. On the procedure: The tumor sizes were determined in two directions and the relative tumor growth was calculated.
(C): Average body weights of the group suffering from parvocellular pulmonary carcinoma. The standard deviations were less than 3%.

Data set [4] concerns SW707 cells of a colorectal carcinoma. Put plainly: Antitumoral effect on human xenotransplants, SW707. The format is in vivo, Nu/Nu-Swiss mice. The settings on record: single i.p. injection 10 mg/kg, FIG. 4B.
In data set [5] the test system is Bronchial carcinoma cells (SCLC). Kind of data set: Anti-tumoral effect on a human parvocellular bronchial carcinoma in naked mice. It counts as in vivo, Nu/Nu mice, strain NMRI. As to conditions: 10 mg/kg intravenously, SCLC tumors about 8 mm, FIG. 1. The protocol:
a) Anti-Tumoral Effect on a Human Parvocellular Bronchial Carcinoma in Naked Mice
Bronchial carcinoma cells (SCLC) were implanted under the skin of six-week-old Nu/Nu mice, strain NMRI (5×10^6 cells in 0.1 ml common salt solution). The tumors had reached a size of about 8 mm after two weeks. Then, five animals each were treated intravenously with either 0.2 ml common salt solution/[…]/1% acetone (control group) or with 10 mg/kg compound according to Example 1 in common salt solution/1% BSA/1% acetone (treated group). The tumor growth was controlled daily. The values are shown in enclosed FIG. 1.

With `N.N.[Cl][Pt][Cl]` [cisplatin], the tumor growth entry in data set [1] (10 mg/kg intravenously (treated group II)) is reported as “constant tumor growth”. Also, the “pH dependence of effectiveness” value in the data set on HeLa cells was “better effects in the alkaline range”. Moreover, the “tumor size as compared to the control group” value in data set [2] worked out at 50%. Moreover, the “pH effect on IC50” value in the data set on cell lines is “poorer with pH 6.8 than with pH 7.4 or there was no detectable pH effect”. Moreover, the weight loss is 12% in data set [3] (day 3 after the treatment, 10 mg/kg i.p., FIG. 4C) and 13% in data set [3] (day 6 after the treatment, 10 mg/kg i.p., FIG. 4C). In data set [4], the “effect on tumor growth” value was “no effect”.
Take `CCOC1=[S+][Pt-2]2([S]1)[S]C(OCC)=[S+]2` [Example 1, bis-[O-ethyldithiocarbanato]Platinum (II)]: the tumor size entry in data set [5] is on record as “decreased in size”. Besides, the tumor growth entry in data set [1] (7.5 mg/kg intravenously (treated group I)) is on record as “tumor growth was slowed down”. For the same compound, the “pH dependence of effectiveness” value with HeLa cells is reported as “effective maximum in the slightly acidic range”. In addition, the weight loss entry in data set [3] (mouse, in vivo, ip, 10 mg/kg) is “no weight loss”. The “effect on tumor growth” value in data set [4] was “tumor growth could be prevented”.
